This series has as its system circulating platelets. The note with it: mouse, in vivo.

`CC1(C)CCC(c2ccc(Cl)cc2)=C(CN2CCN(c3ccc(C(=O)NS(=O)(=O)c4ccc(N[C@H](CCN5CCOCC5)CSc5ccccc5)c(S(=O)(=O)C(F)(F)F)c4)cc3)CC2)C1` [Navitoclax]: the thrombocytopenia result is “caused thrombocytopenia” and the “time of maximal thrombocytopenia following injection” value stood at 6 h. For the same compound, the “Time to lowest count” value (ip, 100 mg/kg) was 6 h. For the same compound, the Lowest thrombocyte count (ip, 100 mg/kg, 6 h) is 10 1/10^3 of the platelet#/mm^3.
